Experimental data: patent publication US7811609B2, “Use of metal compounds to treat gastrointestinal infections” (priority 2000, dated 2010)
≈ marks a conversion by molar mass, not a printed value. Like-named read-outs stand apart in the source and are kept apart here.

Assays:
Helicobacter pylori = test: MIC against Helicobacter pylori by two fold serial dilution in growth medium; type: cell-based; settings: for Mean ratio pH 4:pH 7, first value: Strain 1 (Chloride: against first pH 7 value); for MIC, Strain 1 (pH 7): pH 7 (first value where two are given); for Mean ratio pH 4:pH 7, second value: Strain 2 (Chloride: Strain 1 against second pH 7 value); for Average Selectivity Ratio: (Sum of MIC values against all bacteria except H. pylori ÷ No. of MIC values) ÷ MIC value for H. pylori; for effect on the MIC of cobalt against H. pylori: weight ratio of 1:5 (cobalt:cysteine and/or methionine)
Protocol: Solutions of metal salts were prepared by dilution of the metal salt, optionally together with the ligand, in ultra-high-purity water. The pH values were adjusted to 7 with concentrated sodium hydroxide. The solutions were γ irradiated for 20 to 30 minutes for sterilisation, and then diluted ten fold in the bacterial growth medium to be used.
A gradient of concentration was obtained by two fold serial dilutions of the medium. The concentrations of metals were analysed by inductively coupled plasma spectrometry. Each dilution was inoculated with the different bacteria to be tested, by multi-point inoculating on the agar media, or suspending in the broth media.
The presence or absence of bacterial growth was reported within the concentration gradient and the minimum concentration of complex in the medium that inhibits totally the bacterial growth (MIC) was determined. The growth on an agar plate was detected by the presence of colonies, and by turbidity in the broth media. The bacteria were identified by the Gram morphology test. Helicobacter pylori growth was also confirmed by biochemical test on the catalase, urease and oxidase activity.

Pseudomonas aeruginosa [1] = test: MIC against Pseudomonas aeruginosa; type: cell-based; settings: Table 4
Klebsiella = test: MIC against Klebsiella; type: cell-based; settings: Table 4
Enterococcus faecalis = test: MIC against Enterococcus faecalis; type: cell-based; settings: Table 4
E. coli = settings: extrapolated from survival rates; protein broth then phosphate-buffered saline; Zhao et al 1998; cited from earlier work
[2] = test system: Staphylococcus (aureus or Oxford Staph); settings: extrapolated from survival rates; protein broth then phosphate-buffered saline; Zhao et al 1998; cited from earlier work
Pseudomonas aeruginosa [3] = settings: extrapolated from survival rates; protein broth then phosphate-buffered saline; Zhao et al 1998; cited from earlier work
Echerichia coli = test: MIC against Echerichia coli; type: cell-based; settings: Table 4
Staphylococcus aureus = test: MIC against Staphylococcus aureus; type: cell-based; settings: Table 4
H. pylori [4] = settings: H. pylori; cited from earlier work
H. pylori [5] = settings: cited from earlier work
[6] = STH broth, NCTC 11637 and seven clinical isolates
[7] = pH 4-7: pH of the media changes during the experiment from acidic start

O=[N+]([O-])[O-].O=[N+]([O-])[O-].O=[N+]([O-])[O-].[Bi+3] [Bi^3+ (bismuth nitrate), bismuth nitrate, reference compound]
MIC (Helicobacter pylori; [6]): 4 to 8 mg/L | action against H. pylori (in words) (Helicobacter pylori; Table 2 metals compared with cobalt (II)): active, but only at much higher levels than cobalt (II)

CC(=O)[O-].CC(=O)[O-].[Co+2] [Co acetate]
Mean ratio pH 4:pH 7, first value (Helicobacter pylori): 0.054 | MIC, Strain 1 (pH 4) (Helicobacter pylori): 0.11 | MIC, Strain 1 (pH 7) (Helicobacter pylori): 2.03 | Mean ratio pH 4:pH 7, second value (Helicobacter pylori): 0.11 | MIC, Strain 2 (pH 4) (Helicobacter pylori): 0.11 | MIC, Strain 2 (pH 7) (Helicobacter pylori; pH 7): 1.01 | MIC, pH 4-7 (Helicobacter pylori; [7]): 0.125 mg/l | MIC, pH 7 (Helicobacter pylori; pH 7): 0.5-2 mg/l

Br [Co bromide]
MIC (Helicobacter pylori; Helicobacter pylori, pH 7, read-out: MIC, pH 7): 1 to 4 mg/L | MIC (Helicobacter pylori; Helicobacter pylori, pH 4-7: pH of the media changes during the experiment from acidic start, read-out: MIC, pH 4-7): 0.06 to 0.125 mg/L | Mean ratio pH 4:pH 7, first value (Helicobacter pylori): 0.036 | MIC, Strain 1 (pH 4) (Helicobacter pylori): <0.04 | MIC, Strain 1 (pH 7) (Helicobacter pylori): 1.12 | Mean ratio pH 4:pH 7, second value (Helicobacter pylori): 0.02 | MIC, Strain 2 (pH 4) (Helicobacter pylori): 0.09 | MIC, Strain 2 (pH 7) (Helicobacter pylori; pH 7): 4.49

O=C([O-])[O-].[Co+2] [Co carbonate]
Mean ratio pH 4:pH 7, first value (Helicobacter pylori): 0.048 | MIC, Strain 1 (pH 4) (Helicobacter pylori): 0.09 | MIC, Strain 1 (pH 7) (Helicobacter pylori): 1.09 | Mean ratio pH 4:pH 7, second value (Helicobacter pylori): 0.018 | MIC, Strain 2 (pH 4) (Helicobacter pylori): <0.02 | MIC, Strain 2 (pH 7) (Helicobacter pylori; pH 7): 1.09 | MIC, pH 4-7 (Helicobacter pylori; [7]): 0.03-0.125 mg/l | MIC, pH 7 (Helicobacter pylori; pH 7): 0.125-1 mg/l

[OH][Co][OH] [Co hydroxide]
Mean ratio pH 4:pH 7, first value (Helicobacter pylori): 0.058 | MIC, Strain 1 (pH 4) (Helicobacter pylori): 0.11 | MIC, Strain 1 (pH 7) (Helicobacter pylori): 1.9 | Mean ratio pH 4:pH 7, second value (Helicobacter pylori): 0.029 | MIC, Strain 2 (pH 4) (Helicobacter pylori): 0.11 | MIC, Strain 2 (pH 7) (Helicobacter pylori; pH 7): 3.80 | MIC, pH 4-7 (Helicobacter pylori; [7]): 0.125 mg/l | MIC, pH 7 (Helicobacter pylori; pH 7): 2-4 mg/l

O=[N+]([O-])[O-].O=[N+]([O-])[O-].[Co+2] [Co nitrate]
Mean ratio pH 4:pH 7, first value (Helicobacter pylori): 0.07 | MIC, Strain 1 (pH 4) (Helicobacter pylori): 0.05 | MIC, Strain 1 (pH 7) (Helicobacter pylori): 0.69 | Mean ratio pH 4:pH 7, second value (Helicobacter pylori): 0.08 | MIC, Strain 2 (pH 4) (Helicobacter pylori): 0.055 | MIC, Strain 2 (pH 7) (Helicobacter pylori; pH 7): >0.69 | MIC, pH 4-7 (Helicobacter pylori; [7]): 0.06 mg/l | MIC, pH 7 (Helicobacter pylori; pH 7): 1 mg/l

O=P([O-])([O-])[O-].O=P([O-])([O-])[O-].[Co+2].[Co+2].[Co+2] [Co phosphate]
MIC, pH 4-7 (Helicobacter pylori; [7]): 4 mg/l | MIC, pH 7 (Helicobacter pylori; pH 7): 0.8 mg/l

O=[N+]([O-])[O-].O=[N+]([O-])[O-].O=[N+]([O-])[O-].[Cr+3] [Cr^2+ (chromium nitrate), chromium nitrate, reference compound]
MIC (Helicobacter pylori; [6]): >32 mg/L

[Cl][Cu][Cl] [Cu^2+]
MIC, Pseudomonas aeruginosa (Pseudomonas aeruginosa [1]): > 32 µg/mL | MIC, Klebsiella (Klebsiella): > 32 µg/mL | MIC, Ent faecalis (Enterococcus faecalis): > 32 µg/mL | MIC, E. coli (footnote a) (E. coli): 17.15^a | MIC, Staphylococcus (aureus or Oxford Staph) (footnote a) [2]: 17.15^a | Average Selectivity Ratio (Helicobacter pylori): 1.02 | MIC (Helicobacter pylori; [6]): 16 to 32 mg/L | MIC, H. pylori (Helicobacter pylori; Table 4): 32 | MIC, H. pylori, first of two values (Helicobacter pylori; Table 4): 16 | MIC, H. pylori (Helicobacter pylori; Table 4, main value): 24 µg/mL | MIC, Pseudomonas aeruginosa (footnote a) (Pseudomonas aeruginosa [3]): 1.75^a | MIC, E. coli (Echerichia coli): > 32 µg/mL | MIC, Staphylococcus (aureus or Oxford Staph) (Staphylococcus aureus): > 32 µg/mL

O=C(O)CN(CCN(CC(=O)O)CC(=O)O)CC(=O)O [EDTA, reference compound]
effect of added ligand on the MIC / action of cobalt against H. pylori (Helicobacter pylori; ligand added to cobalt): inhibited the action of cobalt against H. pylori

[Cl][Fe]([Cl])[Cl] [Fe^3+]
MIC, Pseudomonas aeruginosa (Pseudomonas aeruginosa [1]): > 32 µg/mL | MIC, Klebsiella (Klebsiella): > 32 µg/mL | MIC, Ent faecalis (Enterococcus faecalis): > 32 µg/mL | Average Selectivity Ratio (Helicobacter pylori): 1.00 | MIC (Helicobacter pylori; [6]): >32 mg/L | MIC, H. pylori (Helicobacter pylori; Table 4): >32/>32 | MIC, H. pylori, first of two values (Helicobacter pylori; Table 4): >32/>32 | MIC, E. coli (Echerichia coli): > 32 µg/mL | MIC, Staphylococcus (aureus or Oxford Staph) (Staphylococcus aureus): > 32 µg/mL

[Cl][Mn][Cl] [Mn^2+]
MIC, Pseudomonas aeruginosa (Pseudomonas aeruginosa [1]): > 32 µg/mL | MIC, Klebsiella (Klebsiella): > 32 µg/mL | MIC, Ent faecalis (Enterococcus faecalis): > 32 µg/mL | Average Selectivity Ratio (Helicobacter pylori): 1.00 | MIC (Helicobacter pylori; [6]): >32 mg/L | MIC, H. pylori (Helicobacter pylori; Table 4): >32/>32 | MIC, H. pylori, first of two values (Helicobacter pylori; Table 4): >32/>32 | MIC, E. coli (Echerichia coli): > 32 µg/mL | MIC, Staphylococcus (aureus or Oxford Staph) (Staphylococcus aureus): > 32 µg/mL

[O]=[Mo](=[O])=[O] [Mo^6+ (molybdenum oxide), molybdenum oxide, reference compound]
MIC (Helicobacter pylori; [6]): >32 mg/L

[Ni+2] [Ni^2+]
MIC, Pseudomonas aeruginosa (Pseudomonas aeruginosa [1]): > 32 µg/mL | MIC, Klebsiella (Klebsiella): > 32 µg/mL | MIC, Ent faecalis (Enterococcus faecalis): > 32 µg/mL | MIC, E. coli (footnote a) (E. coli): 22.89^a | MIC, Staphylococcus (aureus or Oxford Staph) (footnote a) [2]: 22.89^a | Average Selectivity Ratio (Helicobacter pylori): 0.89 | MIC (Helicobacter pylori; [6]): >32 mg/L | MIC, H. pylori (Helicobacter pylori; Table 4): >32/>32 | MIC, H. pylori, first of two values (Helicobacter pylori; Table 4): >32/>32 | MIC, Pseudomonas aeruginosa (footnote a) (Pseudomonas aeruginosa [3]): 22.89^a | MIC, E. coli (Echerichia coli): > 32 µg/mL | MIC, Staphylococcus (aureus or Oxford Staph) (Staphylococcus aureus): > 32 µg/mL

O=S(=O)([O-])[O-].[O]=[V+2] [V^4+ (vanadyl sulfate), vanadyl sulfate, reference compound]
MIC (Helicobacter pylori; [6]): >32 mg/L

[Cl-].[Cl-].[Zn+2] [Zn^2+]
MIC, Pseudomonas aeruginosa (Pseudomonas aeruginosa [1]): > 32 µg/mL | MIC, Klebsiella (Klebsiella): > 32 µg/mL | MIC, Ent faecalis (Enterococcus faecalis): > 32 µg/mL | MIC, E. coli (footnote a) (E. coli): 17^a | MIC, Staphylococcus (aureus or Oxford Staph) (footnote a) [2]: 17^a | Average Selectivity Ratio (Helicobacter pylori): 0.76 | MIC (Helicobacter pylori; [6]): >32 mg/L | MIC, H. pylori (Helicobacter pylori; Table 4): >32/32 | MIC, H. pylori, first of two values (Helicobacter pylori; Table 4): >32/32 | MIC, Pseudomonas aeruginosa (footnote a) (Pseudomonas aeruginosa [3]): 1.7^a | MIC, E. coli (Echerichia coli): > 32 µg/mL | MIC, Staphylococcus (aureus or Oxford Staph) (Staphylococcus aureus): > 32 µg/mL

CC[C@H]1OC(=O)[C@H](C)[C@@H](O[C@H]2C[C@@](C)(OC)[C@@H](O)[C@H](C)O2)[C@H](C)[C@@H](O[C@@H]2O[C@H](C)C[C@H](N(C)C)[C@H]2O)[C@](C)(OC)C[C@@H](C)C(=O)[C@H](C)[C@@H](O)[C@]1(C)O [clarithromycin]
MIC50 (H. pylori [4]): 0.03 mg/L (≈ 0.0401 µM) | eradication of infections (H. pylori [5]; in combination with metronidazole): about 70% | eradication of infections (H. pylori [5]; monotherapy): about 34% | eradication of infections (H. pylori [5]; triple therapy with a PPI and either metronidazole or amoxycillin): 85-95%

N[C@@H](CS)C(=O)O [cysteine, reference compound]
effect on the MIC of cobalt against H. pylori (Helicobacter pylori): not to affect the MIC of cobalt against H. pylori

CSCC[C@H](N)C(=O)O [methionine, reference compound]
effect on the MIC of cobalt against H. pylori (Helicobacter pylori): not to affect the MIC of cobalt against H. pylori

Vitamin B12 [reference compound]
activity against H. pylori (Helicobacter pylori; strongly bound cobalt complex): greatly reduced activity
